Experimental data published in the supplement of paper PMC10307832.

Legend:
Assay in all cases: relative viability (nuclei count vs DMSO), 5 days (fraction); higher = more cells survive
[1] = test system: NCI-H358
In short: (§1)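 Dosing by pin tool came one day after lung cancer cell lines were seeded in 1536-well plates, using either one drug or a fixed anchor-drug dose plus five library-drug doses (not always all listed) in √10 steps. After 5 days, nuclei were counted on 4× images. Relative viability is treated-well nuclei count divided by vehicle-well nuclei count, and values are medians of duplicate plates.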

[2] = test system: NCI-H1650
In short: as §1

[3] = test system: NCI-H2347
In short: as §1

[4] = test system: SW 1573
In short: as §1

[5] = test system: LXF-289
In short: as §1

[6] = test system: PC-14
In short: as §1

[7] = test system: NCI-H2342
In short: as §1

[8] = test system: NCI-H1563
In short: as §1

[9] = test system: SK-LU-1
In short: as §1

[10] = test system: LCLC-97TM1
In short: as §1

[11] = test system: NCI-H647
In short: as §1

[12] = test system: NCI-H1993
In short: as §1

[13] = test system: NCI-H2009
In short: as §1

[14] = test system: H3255
In short: as §1

[15] = test system: HOP-62
In short: as §1

[16] = test system: NCI-H2023
In short: as §1

[17] = test system: EMC-BAC-2
In short: as §1

[18] = test system: NCI-H1915
In short: as §1

[19] = test system: BEN
In short: as §1

[20] = test system: NCI-H661
In short: as §1

[21] = test system: NCI-H322M
In short: as §1

[22] = test system: NCI-H2085
In short: as §1

[23] = test system: NCI-H2126
In short: as §1

## C[C@@H]1CN(CC(=O)Nc2ccc3c(c2)Cc2cccc(-c4cc(=O)cc(N5CCOCC5)o4)c2S3)C[C@H](C)O1 + Nc1nc2[nH]cc(CCc3ccc(C(=O)N[C@@H](CCC(=O)O)C(=O)O)cc3)c2c(=O)[nH]1 [Pemetrexed] (partner 0.2 µM)
[1]; first compound 0.04 µM
  relative viability: 0.179
[1]; first compound 0.1265 µM
  relative viability: 0.154
[1]; first compound 0.4 µM
  relative viability: 0.162
[1]; first compound 4 µM
  relative viability: 0.157
[2]; first compound 0.04 µM
  relative viability: 0.367
[2]; first compound 0.1265 µM
  relative viability: 0.353
[2]; first compound 0.4 µM
  relative viability: 0.408
[2]; first compound 4 µM
  relative viability: 0.329
[3]; first compound 0.04 µM
  relative viability: 0.413
[3]; first compound 0.1265 µM
  relative viability: 0.408
[3]; first compound 0.4 µM
  relative viability: 0.413
[3]; first compound 4 µM
  relative viability: 0.381
[4]; first compound 0.04 µM
  relative viability: 0.935
[4]; first compound 0.1265 µM
  relative viability: 0.855
[4]; first compound 0.4 µM
  relative viability: 0.903
[4]; first compound 4 µM
  relative viability: 0.822
[5]; first compound 0.04 µM
  relative viability: 0.884
[5]; first compound 0.1265 µM
  relative viability: 0.99
[5]; first compound 0.4 µM
  relative viability: 0.89
[5]; first compound 4 µM
  relative viability: 0.818
[6]; first compound 0.04 µM
  relative viability: 0.119
[6]; first compound 0.1265 µM
  relative viability: 0.141
[6]; first compound 0.4 µM
  relative viability: 0.127
[6]; first compound 4 µM
  relative viability: 0.116
[7]; first compound 0.04 µM
  relative viability: 0.745
[7]; first compound 0.1265 µM
  relative viability: 0.777
[7]; first compound 0.4 µM
  relative viability: 0.767
[7]; first compound 4 µM
  relative viability: 0.729
[8]; first compound 0.04 µM
  relative viability: 0.661
[8]; first compound 0.1265 µM
  relative viability: 0.774
[8]; first compound 0.4 µM
  relative viability: 0.715
[8]; first compound 4 µM
  relative viability: 0.712
[9]; first compound 0.04 µM
  relative viability: 1.08
[9]; first compound 0.1265 µM
  relative viability: 0.933
[9]; first compound 0.4 µM
  relative viability: 1.01
[9]; first compound 4 µM
  relative viability: 0.756
[10]; first compound 0.1265 µM
  relative viability: 0.192
[10]; first compound 0.4 µM
  relative viability: 0.183
[10]; first compound 4 µM
  relative viability: 0.17
[11]; first compound 0.04 µM
  relative viability: 0.19
[11]; first compound 0.1265 µM
  relative viability: 0.154
[11]; first compound 0.4 µM
  relative viability: 0.102
[11]; first compound 4 µM
  relative viability: 0.155
[12]; first compound 0.04 µM
  relative viability: 0.63
[12]; first compound 0.1265 µM
  relative viability: 0.587
[12]; first compound 0.4 µM
  relative viability: 0.542
[12]; first compound 4 µM
  relative viability: 0.578
[13]; first compound 0.04 µM
  relative viability: 1.06
[13]; first compound 0.1265 µM
  relative viability: 0.968
[13]; first compound 0.4 µM
  relative viability: 1.05
[13]; first compound 4 µM
  relative viability: 0.849
[14]; first compound 0.04 µM
  relative viability: 0.539
[14]; first compound 0.1265 µM
  relative viability: 0.522
[14]; first compound 0.4 µM
  relative viability: 0.482
[14]; first compound 4 µM
  relative viability: 0.489
[15]; first compound 0.04 µM
  relative viability: 0.318
[15]; first compound 0.1265 µM
  relative viability: 0.33
[15]; first compound 0.4 µM
  relative viability: 0.317
[15]; first compound 4 µM
  relative viability: 0.455
[16]; first compound 0.04 µM
  relative viability: 0.263
[16]; first compound 0.1265 µM
  relative viability: 0.213
[16]; first compound 0.4 µM
  relative viability: 0.203
[16]; first compound 4 µM
  relative viability: 0.199
[17]; first compound 0.04 µM
  relative viability: 0.417
[17]; first compound 0.1265 µM
  relative viability: 0.439
[17]; first compound 0.4 µM
  relative viability: 0.458
[17]; first compound 4 µM
  relative viability: 0.459
[18]; first compound 0.04 µM
  relative viability: 0.478
[18]; first compound 0.1265 µM
  relative viability: 0.426
[18]; first compound 0.4 µM
  relative viability: 0.413
[18]; first compound 4 µM
  relative viability: 0.358
[19]; first compound 0.04 µM
  relative viability: 0.633
[19]; first compound 0.1265 µM
  relative viability: 0.713
[19]; first compound 0.4 µM
  relative viability: 0.749
[19]; first compound 4 µM
  relative viability: 0.648
[20]; first compound 0.04 µM
  relative viability: 0.969
[20]; first compound 0.1265 µM
  relative viability: 0.904
[20]; first compound 0.4 µM
  relative viability: 0.899
[20]; first compound 4 µM
  relative viability: 0.894
[21]; first compound 0.04 µM
  relative viability: 0.597
[21]; first compound 0.1265 µM
  relative viability: 0.607
[21]; first compound 0.4 µM
  relative viability: 0.649
[21]; first compound 4 µM
  relative viability: 0.657
[22]; first compound 0.04 µM
  relative viability: 0.961
[22]; first compound 0.1265 µM
  relative viability: 0.936
[22]; first compound 0.4 µM
  relative viability: 0.935
[22]; first compound 4 µM
  relative viability: 0.759
[23]; first compound 0.04 µM
  relative viability: 0.668
[23]; first compound 0.1265 µM
  relative viability: 0.657
[23]; first compound 0.4 µM
  relative viability: 0.77
[23]; first compound 4 µM
  relative viability: 0.695
